From PMC4735867, “Leukotriene E4 is a full functional agonist for human cysteinyl leukotriene type 1 receptor-dependent gene expression” (Scientific Reports, 2016)

Target: T1, CysLT1 (cysteinyl leukotriene type 1 receptor) (Homo sapiens, UniProt Q9Y271)
T1 construct: gene CYSLTR1
T1 sequence (Q9Y271 1-337): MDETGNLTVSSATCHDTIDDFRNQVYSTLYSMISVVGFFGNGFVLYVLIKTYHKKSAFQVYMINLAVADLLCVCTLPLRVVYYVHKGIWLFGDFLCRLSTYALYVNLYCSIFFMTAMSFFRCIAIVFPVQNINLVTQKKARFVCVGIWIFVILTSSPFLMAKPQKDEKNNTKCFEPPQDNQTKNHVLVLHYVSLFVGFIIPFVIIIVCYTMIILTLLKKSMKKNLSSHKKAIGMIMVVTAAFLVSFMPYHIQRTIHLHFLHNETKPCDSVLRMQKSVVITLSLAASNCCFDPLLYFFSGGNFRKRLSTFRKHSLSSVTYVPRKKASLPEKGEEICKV
Assay type: cell-based

Structure (SMILES): CC(C)(O)c1ccccc1CC[C@@H](SCC1(CC(=O)O)CC1)c1cccc(/C=C/c2ccc3ccc(Cl)cc3n2)c1 [Montelukast]
- antagonism (100 nmol/L) of LTD4/LTE4-induced calcium mobilisation and CCL4 expre: Montelukast fully inhibiting LTE4 responses in LAD2 as well as LTD4 responses in LAD2 and LUVA cells
